Results taken from patent US8790678B2, “Biomaterials having nanoscale layers and coatings” (Washington University, priority 2006, dated 2014).
Each block holds one compound with its values, some of them ahead of it. Bridges are numbered along the chain shown (N, C = ends). Where no end group is shown, it is not given here.

What was measured:
[1] = Hydrogel mesh size by modified SDS-PAGE gel; assay type: physicochemical; settings: PEG-OVS/albumin layer in SDS-PAGE gel
Procedure: The mesh size of PEG-OVS/albumin hydrogels was investigated using a modified SDS-PAGE gel to characterize the migration of albumin through the PEG hydrogels. A 15% acrylamide gel was formed at the bottom of the casting chamber, with a spacer to form a well on the left side of the gel. After the acrylamide solidified, the PEG-OVS/albumin precursor solution was pipetted into the formed well. The casting stand was placed in a humidified 37° C. incubator for 24 h to crosslink the PEG gel. A 7% acrylamide gel was formed over the polymerized gels, followed by a stacking gel. A solution of bovine serum albumin (BSA) was loaded into the wells of the gel, which was run under standard conditions. The gel was stained with Coomassie Blue.

[2] = test system: Human aortic endothelial cells; assay: Single cell tracking on RGD/PEG-OVS/albumin hydrogels under fluid shear stress; assay type: cell-based; settings: for loss of cells from the hydrogel: highest RGD concentration, over 12 h
Procedure: Human aortic endothelial cells seeded onto RGD/PEG-OVS/albumin hydrogels at 1000-2000 cells/cm^2 were tracked under 20 dynes/cm^2 fluid shear stress in HEPES-buffered low serum medium (HEPES-LSM; MCDB 131 with 0.1% FBS, 1% ABAM, […] HEPES, pH 7.4) containing 0.4% FAF-BSA for 12 h.
Time lapse microscopy images were obtained every 2 min for 12 h of endothelial cell migration on the surface of RGD containing PEG hydrogels. The percent of cells remaining on the gels during the course of the experiment was recorded for each RGD concentration. The projected cell areas of all cells were determined by manually outlining the cells after 3 h under 20 dyne/cm^2 shear stress. Single endothelial cells were manually tracked for 12 h to obtain XY-coordinate data for the center of each cell. Coordinate data from every six minutes (Δt=6 min) for all cells in each experiment were saved as variables for analysis in MATLAB (The MathWorks, Natick, Mass.). At each time point i, ti=iΔt, the mean squared displacement was calculated using the overlapping interval method. The speed of each individual was calculated by dividing the root mean-square displacement for a single time interval by the tracking interval (6 min). Each cell's persistence time was determined by fitting the persistent random walk model given by Equation 1: <d^2(t)>=2S^2P[t−P(1−e^−t/P)] [1] using the calculated speed by nonlinear least squares regression analysis as previously described (Dunn 1983; Othmer, Dunbar and Alt 1988; Harms et al. 2005). Speed simply represents the total path length of a cell over time. Persistence time represents the time period between changes in the direction of movement of more than 60°. Path length is calculated as the product of speed and persistence time. Cell dispersion is the product of speed squared and persistence time. Cell areas were obtained by manually tracing cells. All data was analyzed by ANOVA Scheffe post hoc. Endothelial Response to Linear RGD Concentration—Cell Attachment Strength

D-erythro-sphingosine = assay: Activity of GST-tagged sphingosine kinase by TLC; assay type: biochemical, human; settings: 10 μg/mL protein, 50 μM D-erythro-sphingosine
Text: Hydrogels were formed with the enzyme sphingosine kinase to produce S1P in the materials from a precursor (sphingosine) naturally present in the blood. Human sphingosine kinase was cloned by RT-PCR from human umbilical vein endothelial cell mRNA. The PCR insert with the correct sequence was transferred from the cloning vector to the expression vector, pGEX-6P-1, using the restriction enzymes EcoRI and XhoI, to create an N-terminal GST-tagged sphingosine kinase [SEQ ID NO. 1]. The plasmid with the correct sequence was transfected into BL21 E. coli and the cells were grown to OD600 0.6 in LB medium. Protein expression was induced with 1 mM IPTG. After 3 h, the cells were harvested by centrifugation for 20 min at 6000 g, 4° C. The cells were lysed with lysozyme and sonication. The lysate was centrifuged at 50,000 g for 45 min at 4° C. and the supernatant was filtered. The GST-containing protein was purified using GSTrap FF columns. Activity of the protein (10 μg/mL) was assessed by incubation with 50 μM D-erythro-sphingosine and […] in 0.1% BSA in PBS for 0-30 min, followed by dilution 1:1 with methanol and acidification to pH 1 with HCl. Lipids were extracted into chloroform and analyzed by thin layer chromatography on silica plates with butanol-acetic acid-water 6:2:2, with detection by ninhydrin. There was complete conversion to sphingosine 1-phosphate within 30 min.

[3] = Sulforhodamine B release from preloaded hydrogels; assay type: physicochemical; settings: 500 nmol preloaded, 554 nm
Procedure: The effect of gel mesh size on the diffusion of small molecules was tested using a water-soluble dye molecule, sulforhodamine B. Sulforhodamine B (500 nmol) was preloaded into gels formed with PEG-OVS crosslinked with albumin, PEG-diamine, or DTT. The gels were incubated win PBS and the release of sulforhodamine B was detected by visible light spectroscopy at 554 nm over time. The molecular weight of sulforhodamine is 580.7, compared to 379.5 for S1P, and the diffusivity of the dye would be expected to be lower than that of S1P. Using the Wilke-Chang correlation, we calculated a diffusion coefficient of 3.42×10^−6 cm^2/sec for sulforhodamine and 4.15×10^−6 cm^2/sec for S1P, both at 37° C.

[4] = test system: chorioallantoic membrane (CAM); assay: Chick chorioallantoic membrane (CAM) angiogenesis assay; assay type: in vivo, chicken; settings: 50 ng spotted on Thermanox coverslip, two days
Procedure: Embryonated chicken eggs were incubated blunt-end up in a 37° C. incubator. At embryonal day 6, the top of the egg was cracked and removed using tweezers to create a 1.5 cm diameter opening. The inner shell membrane was removed, exposing the CAM. A 20 μL PEG hydrogel was then placed onto the CAM. As controls, 50 ng bFGF or 50 ng S1P were spotted onto small pieces of Thermanox coverslips (Nunc), air dried and placed onto the CAM. The eggs were sealed with parafilm and returned to the incubator. After two days of incubation, the eggs were reopened and the degree of angiogenesis was visually assessed.

HAEC = assay: Centrifugation assay of cell adhesion strength on RGD hydrogels; assay type: cell-based, human; settings: range as RGD concentration in PEG-OVS/albumin hydrogel was increased; 6 h adhesion
Procedure: Cell adhesion strengths to the RGD containing hydrogel surfaces were assessed using a centrifugation assay to apply controlled detachment forces. PEG hydrogels (75 μL) of various concentrations of RGD were formed on the bottom of a 48-well non-treated culture plate. Following crosslinking for 24 h, HAEC were seeded onto the gels at 10,000 cells/cm^2 in 500 μL EGM. After 6 h to allow the cells to attach and spread, the gels were washed with DPBS. The wells were filled with DPBS to the top of the wells and then covered with adhesive sealing tape. Images were obtained at 4× to quantify the number of cells initially attached to the hydrogel. […] The percent of cells remaining on the hydrogel was quantified. […]
The effects of changing the linear RGD concentration on the initial adhesion strength of endothelial cells to PEG-OVS/albumin hydrogels were examined. […] Cell adhesion strengths were assessed by centrifugation of inverted, sealed plates containing hydrogels polymerized in the bottoms of wells. The percent of cells remaining adhered to the hydrogels after centrifugation for 5 min was measured for various forces of detachment on each concentration of linear RGD. […]
The initial adhesion strength of endothelial cells to the PEG hydrogels containing cyclic RGD peptide was measured after 6 hours to allow for endothelial cell adhesion. […]

[5] = test system: Human Umbilical Vein Endothelial Cells (HUVEC); assay: Cell adhesion assay on layer-by-layer PEG hydrogel coatings; assay type: cell-based; settings: RGD peptide attached to PEG-VS/PEG-diamine hydrogel; medium containing serum proteins
Procedure: Hydrogels were formed layer-by-layer by conjugate addition reactions between PEG-VS and PEG-diamine. First, the surface of the substrate was activated to create reactive amine groups. Clean glass coverslips were incubated in 2% 3-aminopropyltriethoxysilane in dry acetone solution for one hour with gentle shaking. The aminophase coverslips were then cured at 100° C. for a 3 h, and stored in a clean Petri dish until use. The activated substrates were incubated with a solution containing 1% eight-arm PEG-VS overnight at pH 8.5 and 37° C. The substrates were subsequently incubated with a solution of 1% PEG-diamine (mol. wt. 3400, Shearwater Polymers) for 1 h at 37° C. This two-step process was repeated to create multiple layers (one layer comprises PEG-VS+PEG-diamine). Between incubations with PEG-VS or PEG-diamine, the surfaces were washed six times with PBS. After the formation of five layers, the substrates were incubated with PEG-VS for 1 h at 37° C. […]
The RGD peptide acetyl-GCGYGRGDSPG [SEQ ID NO. […] The peptide was purified by C18 chromatography and analyzed by MALDI-TOF mass spectrometry. […]
Human Umbilical Vein Endothelial Cells (HUVEC, Clonetics) were grown in endothelial cell growth medium (EGM, Clonetics) on tissue culture polystyrene at 37° C. and 5% CO2. […] Cells on the surfaces were imaged by phase contrast microscopy and the number of cells was counted manually.

Compound: aprotinin
migration of protein through the PEG hydrogel [1]: freely passed through

Compound: lysozyme: molecular weight marker (14.4 kDa)
migration of protein through the PEG hydrogel [1]: freely passed through

Compound: Albumin: bovine serum albumin loaded on the SDS-PAGE gel
migration of protein through the PEG hydrogel [1]: hindered

Compound: Ac-GCNAC*RGDGWC*G (Ac-GCNACRGDGWCG; disulfide 5-11) [cyclic RGD, cyclic RGD peptide cyclized by disulphide formation]
cell migration speed relative to cells without RGD ([2]; 0.69 mM cyclic RGD, 100 nM S1P): more than twice
migration speed greater than the highest speed on linear RGD with 100 nM S1P ([2]; 0.69 mM cyclic RGD, 100 nM S1P): 44%
loss of cells from the hydrogel ([2]; 20 dyne/cm^2): about 20%
RGD concentration of peak migration speed ([2]; with 100 nM S1P, 20 dyne/cm^2): 0.69 mM

Compound: N-terminal GST-tagged sphingosine kinase: human sphingosine kinase cloned from HUVEC mRNA with N-terminal GST tag
time to complete conversion to sphingosine 1-phosphate (D-erythro-sphingosine): ≤ 30 min

time to near complete release of dye into PBS [3]: ~6 h
Compound: CCN(CC)c1ccc2c(-c3ccc(S(=O)(=O)O)cc3S(=O)(=O)[O-])c3ccc(=[N+](CC)CC)cc-3oc2c1 [sulforhodamine B]

Compound: bFGF: control angiogenic factor in CAM assay
angiogenic response [4]: strong angiogenic responses

Compound: acetyl-GCGYGRGDSPG (Ac-GCGYGRGDSPG; not fully specified (C-terminus); printed as acetyl-GCGYGRGDSPG) [linear RGD, cell adhesion-promoting peptide]
loss of cells from the hydrogel ([2]; 20 dyne/cm^2): less than 5%
RGD concentration of maximum dispersion ([2]; without S1P): 4.12 mM
RGD concentration of maximum path length ([2]; without S1P): 4.12 mM
RGD concentration of maximum cell speed ([2]; without S1P, 20 dynes/cm^2): 4.12 mM
detachment force required to remove 50% of the cells (F50) (HAEC): 850-1120 pN
HUVEC adhesion to multilayered PEG hydrogel [5]: restored HUVEC adhesion
